Test results as given in patent US11173146B2, “Selective activators of the intermediate conductance CA2+activated K+ channel KCa3.1 and their methods of use” (The Regents of the University of California, priority 2014, dated 2021).
Entries after “also recorded” stand apart in the source; their conditions may differ.

Tests used:
mKV3.1 = molecular target: T1, mKV3.1 (Mus musculus, UniProt P15388); assay: KV3.1 current inhibition (L929 cells); format: cell-based
T1 construct: expressed in transfected cells; host or cells: L929
T1 sequence (P15388 whole entry): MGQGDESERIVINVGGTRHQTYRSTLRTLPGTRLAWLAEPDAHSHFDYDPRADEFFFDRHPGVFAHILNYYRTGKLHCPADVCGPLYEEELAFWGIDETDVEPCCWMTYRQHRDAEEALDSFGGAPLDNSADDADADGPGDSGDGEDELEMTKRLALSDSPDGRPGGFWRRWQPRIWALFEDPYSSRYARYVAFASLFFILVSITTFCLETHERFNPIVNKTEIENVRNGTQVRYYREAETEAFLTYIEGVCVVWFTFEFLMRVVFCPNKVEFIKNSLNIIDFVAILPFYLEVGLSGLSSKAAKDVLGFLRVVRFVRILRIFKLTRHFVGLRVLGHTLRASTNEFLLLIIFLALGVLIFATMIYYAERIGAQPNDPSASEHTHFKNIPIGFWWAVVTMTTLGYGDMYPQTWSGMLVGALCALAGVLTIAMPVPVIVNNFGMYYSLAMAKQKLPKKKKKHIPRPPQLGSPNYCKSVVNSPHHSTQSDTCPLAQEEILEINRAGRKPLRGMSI
Description: (§1) Cells, Cell lines and Clones. HEK-293 cells stably expressing hKCa2.1, rKCa2.2 and hKCa3.1 were obtained from Khaled Houamed (University of Chicago, Ill.) in 2002 and have been maintained in the Wulff laboratory at the University of California since then. The cloning of hKCa2.3 (19 CAG repeats) and hKCa3.1 has been previously described (Wulff et al., 2000). The hKCa2.3 clone was later stably expressed in COS-7 cells at Aurora Biosciences Corp., San Diego, Calif. […]
(§2) Electrophysiology. […] For manual experiments COS-7, HEK-293 or L929 cells were trypsinized, plated onto poly-L-lysine coated coverslips and typically recorded from between 20 min and 4 h after plating. […] Free Ca^2+ concentrations were calculated with MaxChelator assuming a temperature of 25° C., a pH of 7.2 and an ionic strength of 160 mM. To reduce contaminating currents from native chloride channels in COS-7 cells, KCa2.3 currents were recorded with an internal pipette solution containing (in mM): 145 K^+ aspartate, 2 MgCl2, 10 HEPES, 10 EGTA and 7.4 CaCl2 (500 nM free Ca^2+), pH 7.2, 290-310 mOsm. […] KV2.1, Kv1.3, and KV3.1 currents were recorded in normal Ringer solution with a Ca^2+-free KF-based pipette solution as previously described (Schmitz et al., 2005). HERG (KV11.1) currents were recorded with a 2-step pulse from −80 mV first to 20 mV for 1 sec and then to −50 mV for 1 sec. […]

wild-type mice = assay: Telemetry of blood pressure and heart rate in wild-type mice; format: in vivo; settings: for mean arterial blood pressure: FIG. 6A
Experimental: Telemetry. […] . […] . […] . […] . Maximal injection volume was ≤600 μl. […] . […] Data were analyzed using the DSI software.
. […] . The blood pressure drop was accompanied by a severe reduction of heart rate (HR) by ˜400 bpm (FIG. 6A left). To avoid fatal hypothermia or circulatory collapse, we handled these severely bradycardic mice for ˜2 h and increased RT to 34° C. As shown in FIG. 6A these maneuvers increased MAP transiently, presumably because of a sympathetic input on total peripheral resistance, but not HR and the low HR persisted over another 10 h before the mice slowly recovered (FIG. 6A left). […] However, this drop was more transient and lasted for ˜3 h.

hNaV1.4 = molecular target: T2, hNaV1.4 (Homo sapiens, UniProt P35499); assay: NaV1.4 current inhibition (HEK-293); format: cell-based; settings: HEK293
T2 construct: host or cells: HEK-293

hKV2.1 = molecular target: T3, hKV2.1 (Homo sapiens, UniProt Q14721); assay: KV2.1 current inhibition (HEK293); format: cell-based
T3 construct: host or cells: HEK293
Description: as §1, §2

hCaV1.2 = molecular target: T4, hCaV1.2 (Homo sapiens, UniProt Q13936); assay: CaV1.2 current inhibition (HEK-293); format: cell-based; settings: HEK293
T4 construct: host or cells: HEK-293
T4 sequence (Q13936 whole entry): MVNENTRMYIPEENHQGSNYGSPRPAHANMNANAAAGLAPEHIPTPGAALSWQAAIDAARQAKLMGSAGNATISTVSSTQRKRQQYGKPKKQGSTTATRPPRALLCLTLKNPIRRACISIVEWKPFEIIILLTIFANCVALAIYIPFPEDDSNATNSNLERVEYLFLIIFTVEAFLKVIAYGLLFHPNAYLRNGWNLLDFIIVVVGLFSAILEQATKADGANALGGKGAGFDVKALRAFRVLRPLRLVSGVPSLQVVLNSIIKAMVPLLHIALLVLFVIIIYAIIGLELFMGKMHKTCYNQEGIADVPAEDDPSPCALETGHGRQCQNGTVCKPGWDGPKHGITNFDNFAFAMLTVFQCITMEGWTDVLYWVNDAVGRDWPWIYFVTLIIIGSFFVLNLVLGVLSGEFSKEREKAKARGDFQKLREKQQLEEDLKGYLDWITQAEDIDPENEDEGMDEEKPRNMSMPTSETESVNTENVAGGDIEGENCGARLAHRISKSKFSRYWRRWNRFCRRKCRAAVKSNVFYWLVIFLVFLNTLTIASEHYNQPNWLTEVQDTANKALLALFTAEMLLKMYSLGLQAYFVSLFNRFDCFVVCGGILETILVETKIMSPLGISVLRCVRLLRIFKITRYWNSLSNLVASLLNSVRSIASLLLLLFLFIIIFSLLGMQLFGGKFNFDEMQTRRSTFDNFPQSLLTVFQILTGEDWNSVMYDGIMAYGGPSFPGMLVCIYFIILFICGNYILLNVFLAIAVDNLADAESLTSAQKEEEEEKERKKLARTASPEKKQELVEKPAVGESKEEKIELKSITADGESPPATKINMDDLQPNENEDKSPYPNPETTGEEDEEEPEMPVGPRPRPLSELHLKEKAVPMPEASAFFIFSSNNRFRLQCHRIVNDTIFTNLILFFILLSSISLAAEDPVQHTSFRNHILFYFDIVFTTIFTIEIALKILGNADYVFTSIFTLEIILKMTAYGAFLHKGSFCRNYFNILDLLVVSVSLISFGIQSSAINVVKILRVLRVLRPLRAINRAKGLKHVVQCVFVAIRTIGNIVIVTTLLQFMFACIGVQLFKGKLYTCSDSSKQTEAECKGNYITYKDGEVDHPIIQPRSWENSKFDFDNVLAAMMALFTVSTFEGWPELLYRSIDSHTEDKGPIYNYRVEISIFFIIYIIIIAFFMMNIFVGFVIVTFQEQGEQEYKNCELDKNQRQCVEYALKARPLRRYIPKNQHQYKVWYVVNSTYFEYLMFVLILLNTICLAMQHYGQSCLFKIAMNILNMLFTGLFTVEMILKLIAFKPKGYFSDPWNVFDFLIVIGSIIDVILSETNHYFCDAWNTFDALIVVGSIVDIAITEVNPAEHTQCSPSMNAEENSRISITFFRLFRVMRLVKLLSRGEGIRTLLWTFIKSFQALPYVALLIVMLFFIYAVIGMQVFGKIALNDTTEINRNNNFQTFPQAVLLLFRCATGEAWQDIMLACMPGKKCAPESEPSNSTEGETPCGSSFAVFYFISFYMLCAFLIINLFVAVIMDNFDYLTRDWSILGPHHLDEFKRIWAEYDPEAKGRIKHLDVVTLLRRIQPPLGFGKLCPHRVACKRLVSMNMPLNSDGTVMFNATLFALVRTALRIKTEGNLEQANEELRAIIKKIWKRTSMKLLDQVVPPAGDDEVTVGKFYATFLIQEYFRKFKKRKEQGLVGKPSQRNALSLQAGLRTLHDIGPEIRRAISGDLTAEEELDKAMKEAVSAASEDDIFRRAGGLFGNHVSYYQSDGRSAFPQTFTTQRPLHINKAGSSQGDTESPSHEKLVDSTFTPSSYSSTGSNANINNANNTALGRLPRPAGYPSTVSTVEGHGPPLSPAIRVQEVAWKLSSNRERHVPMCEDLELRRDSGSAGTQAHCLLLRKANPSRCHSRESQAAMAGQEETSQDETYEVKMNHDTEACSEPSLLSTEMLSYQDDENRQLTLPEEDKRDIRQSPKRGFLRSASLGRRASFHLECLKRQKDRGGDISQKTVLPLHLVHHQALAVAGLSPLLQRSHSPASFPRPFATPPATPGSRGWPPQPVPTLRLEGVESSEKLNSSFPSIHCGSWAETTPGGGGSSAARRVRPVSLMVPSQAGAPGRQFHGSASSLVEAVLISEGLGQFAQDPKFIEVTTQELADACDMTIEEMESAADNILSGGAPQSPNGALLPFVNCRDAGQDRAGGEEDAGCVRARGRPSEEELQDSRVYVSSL

hNaV1.5 = molecular target: T5, hNaV1.5 (Homo sapiens, UniProt Q14524); assay: NaV1.5 current inhibition (HEK-293); format: cell-based; settings: HEK293
T5 construct: host or cells: HEK-293
T5 sequence (Q14524 whole entry): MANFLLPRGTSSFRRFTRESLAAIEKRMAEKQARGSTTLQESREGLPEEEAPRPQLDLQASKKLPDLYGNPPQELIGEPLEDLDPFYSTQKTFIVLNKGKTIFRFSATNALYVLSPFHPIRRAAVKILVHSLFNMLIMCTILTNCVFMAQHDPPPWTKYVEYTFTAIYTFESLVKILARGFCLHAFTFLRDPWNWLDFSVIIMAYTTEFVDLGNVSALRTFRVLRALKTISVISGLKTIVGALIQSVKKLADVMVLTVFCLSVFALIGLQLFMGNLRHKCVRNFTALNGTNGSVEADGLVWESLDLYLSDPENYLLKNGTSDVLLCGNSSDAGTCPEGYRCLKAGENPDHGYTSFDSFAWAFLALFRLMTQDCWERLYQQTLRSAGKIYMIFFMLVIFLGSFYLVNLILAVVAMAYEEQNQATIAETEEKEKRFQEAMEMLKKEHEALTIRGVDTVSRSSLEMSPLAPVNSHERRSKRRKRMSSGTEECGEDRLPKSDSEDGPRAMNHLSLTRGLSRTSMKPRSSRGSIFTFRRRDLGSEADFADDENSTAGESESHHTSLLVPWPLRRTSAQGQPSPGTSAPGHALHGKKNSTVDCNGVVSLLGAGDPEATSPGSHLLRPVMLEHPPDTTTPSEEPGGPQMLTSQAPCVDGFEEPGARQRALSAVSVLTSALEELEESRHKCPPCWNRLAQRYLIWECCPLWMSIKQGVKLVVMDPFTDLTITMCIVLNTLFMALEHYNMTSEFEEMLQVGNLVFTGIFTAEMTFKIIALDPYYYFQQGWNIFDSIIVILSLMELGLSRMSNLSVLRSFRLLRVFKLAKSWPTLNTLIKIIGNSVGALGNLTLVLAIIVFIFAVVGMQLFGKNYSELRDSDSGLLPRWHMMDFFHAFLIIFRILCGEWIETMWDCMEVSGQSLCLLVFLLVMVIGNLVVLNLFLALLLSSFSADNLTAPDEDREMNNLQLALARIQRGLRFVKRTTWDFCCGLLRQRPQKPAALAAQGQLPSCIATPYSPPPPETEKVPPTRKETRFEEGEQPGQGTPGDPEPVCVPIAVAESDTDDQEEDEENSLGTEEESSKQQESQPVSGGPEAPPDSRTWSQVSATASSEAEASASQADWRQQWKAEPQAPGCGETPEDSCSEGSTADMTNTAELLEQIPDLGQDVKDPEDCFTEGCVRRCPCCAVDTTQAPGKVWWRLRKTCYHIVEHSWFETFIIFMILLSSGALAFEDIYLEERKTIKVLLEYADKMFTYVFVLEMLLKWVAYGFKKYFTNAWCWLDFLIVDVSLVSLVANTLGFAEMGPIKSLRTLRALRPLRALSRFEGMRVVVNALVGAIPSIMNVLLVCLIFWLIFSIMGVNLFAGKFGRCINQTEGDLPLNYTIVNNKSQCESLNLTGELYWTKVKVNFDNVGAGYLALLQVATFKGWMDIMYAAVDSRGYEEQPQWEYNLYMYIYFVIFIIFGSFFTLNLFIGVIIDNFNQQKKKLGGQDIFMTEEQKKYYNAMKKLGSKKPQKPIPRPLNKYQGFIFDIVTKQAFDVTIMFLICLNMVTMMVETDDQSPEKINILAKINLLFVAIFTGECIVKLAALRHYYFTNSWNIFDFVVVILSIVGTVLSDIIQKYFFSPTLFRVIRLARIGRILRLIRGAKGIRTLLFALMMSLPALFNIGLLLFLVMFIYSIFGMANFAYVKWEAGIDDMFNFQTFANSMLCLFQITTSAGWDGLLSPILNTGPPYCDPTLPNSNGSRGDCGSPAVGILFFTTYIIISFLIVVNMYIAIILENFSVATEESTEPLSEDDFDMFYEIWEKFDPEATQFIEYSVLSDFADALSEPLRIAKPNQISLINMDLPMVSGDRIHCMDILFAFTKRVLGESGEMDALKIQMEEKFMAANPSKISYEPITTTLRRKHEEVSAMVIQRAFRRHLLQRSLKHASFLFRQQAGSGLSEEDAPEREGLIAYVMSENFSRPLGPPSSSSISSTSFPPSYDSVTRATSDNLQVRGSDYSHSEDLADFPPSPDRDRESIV

Compound	inhibition at 25 µM (mKV3.1; at 25 μM) [%]	MAP (wild-type mice; 30 mg/kg i.p.)	change of HR (wild-type mice; 30 mg/kg i.p.) [bpm]	duration of HR decrease after injection (wild-type mice; 30 mg/kg i.p.) [h]	heart rate (wild-type mice; 30 mg/kg i.p., 2 h after injection)	drop in mean arterial blood pressure (MAP) (wild-type mice; 100 mg/kg i.p.) [mmHg]	heart rate (wild-type mice; 100 mg/kg i.p.)	reduction of heart rate (HR) (wild-type mice; 100 mg/kg i.p.) [bpm]	mean arterial blood pressure (wild-type mice; 100 mg/kg i.p.)	inhibition at 25 µM (hNaV1.4; at 25 μM) [%]	inhibition at 25 µM (hKV2.1; at 25 μM) [%]	inhibition at 25 µM (hCaV1.2; at 25 μM) [%]	inhibition at 25 µM (hNaV1.5; at 25 μM) [%]	inhibition at 50 µM (mKV3.1; at 50 μM) [%]	duration of MAP drop (wild-type mice; 100 mg/kg i.p.) [h]	inhibition at 50 µM (hNaV1.4; at 50 μM) [%]	inhibition at 50 µM (hKV2.1; at 50 μM) [%]	inhibition at 50 µM (hCaV1.2; at 50 μM) [%]	inhibition at 50 µM (hNaV1.5; at 50 μM) [%]
Cc1cc2sc(N)nc2c2ccccc12 [SKA-111, 5-methylnaphtho[1,2-d]thiazol-2-amine]	32.9 ± 1.3	Neither SKA-111 nor SKA-121 caused significant changes; also recorded: did not produce significant alterations	~−50	~2	moderately reduced heart rate	~25	severely reduced heart rate	~400	reduced mean arterial blood pressure	33.4 ± 10.5	37.3 ± 9	49.5 ± 17	39.9 ± 11.1						
Cc1cc2nc(N)oc2c2ccccc12 [SKA-121, 5-Methylnaphtho[2,1-d]oxazol-2-amine]		Neither SKA-111 nor SKA-121 caused significant changes; also recorded: did not produce significant alterations				~20	not and only moderately reduced		reduced mean arterial blood pressure					46.3 ± 16.5	~3	25.7 ± 1.3	43.2 ± 12.5	48.9 ± 2.7	32.1 ± 11.1
